Patent EP3748362A1, “IN VITRO METHOD FOR DETECTING RENAL DISEASE” (Fundacion Instituto De Investigacion Sanitaria Fundacion …, priority 2019, dated 2020)
“Also recorded” adds a separate entry of the source.

Key:
NF-κB2 = assay: Non-canonical NF-κB2 activation (western blot) in TWEAK-stimulated HK2 cells; format: cell-based, Human; conditions: 12 µM paricalcitol for 48 hours, TWEAK 100 ng/ml 6 hours
Protocol: Human kidney proximal tubule epithelial cells (HK2 cell line, ATCC CRL-2190) were grown in RPMI 1640 with 10% fetal bovine serum (FBS), 1% glutamine, 100 U/ml penicillin, 100 µg/ml streptomycin, 5 µg/ml insulin-transferrin-selenite and 36 ng/ml hydrocortisone in 5% CO2 at 37° C. When cells reached 60 to 70% confluence, they were serum-depleted for 24 hours before the experiment.
Cells were stimulated with 100ng/ml recombinant human soluble TWEAK (Millipore) or p-200 µg/ml cresyl-sulfate (Raymond Vanholder and Griet Glorieux, University of Gent, Belgium). Concentrations of TWEAK and p-cresyl-sulfate were based on previously published dose-response experiments (Poveda et al. 2014; Sanz et al. 2008). In some experiments cells were preincubated for 48 hours with the paricalcitol 12 µmol/L (Abbott) prior to stimulation. DMSO, used as a solvent in some cases, had no effect on cell viability or on gene expression levels.
(§1) For western blot, cell (25 µg/lane) and kidney (100-150 µg/lane) protein extracts were separated on 6%-12% polyacrylamide-SDS gels under reducing conditions. […] Autoradiographs were scanned using the Gel Doc™ EZ imager and analyzed with the Image Lab 3.0 software (BioRad).

NF-κB1 [1] = assay: Canonical NF-κB1 activation in obstructed kidneys (UUO) in mice; format: in vivo; conditions: paricalcitol-treated obstructed kidneys (UUO); 750 ng/kg/day
Protocol: (§2) All animal procedures were performed according to the guidelines of animal research in the European Community and with prior approval by the Ethics Committee of the Health Research of the IIS-Fundacion Jiménez Díaz. For in vivo studies, mice received a daily intraperitoneal injection of the VDRA Paricalcitol starting 48 hours prior to induction of kidney damage.
(§3) At the time of sacrifice, animals were anesthetized with 5 mg/kg xylazine (Rompun, Bayer AG) and 35 mg/kg ketamine (Ketolar, Pfizer) and the kidneys perfused in situ with cold saline before removal. Then, kidney portions were fixed in formalin buffer for immunohistochemistry studies or immediately frozen in liquid nitrogen for gene and protein studies.
Unilateral ureteral obstruction (UUO) was established in male C57BL/6 mice, under isoflurane-induced anesthesia. […]
as §1

[2] = tested on: proinflammatory gene expression; assay: Proinflammatory gene expression (real time PCR) in PBMCs from ESRD patients; format: in vivo, human; conditions: ESRD patients treated with paricalcitol vs untreated ESRD hemodialysis patients
Protocol: Intracellular protein and mRNA levels were measured in PBMCs from ESRD patients on hemodialysis. Inclusion criteria were as follows: age >45 years; male sex; informed consent; and absence of active inflammatory, infectious, or malignant diseases at the initiation or during the study. This study was approved by the IIS-Fundación Jiménez Diaz Ethics Committee. Patients were enrolled after providing written informed consent. PBMCs were separated from whole blood samples (30 ml into EDTA tubes) by a density gradient centrifugation method using Ficoll density gradient centrifugation. In total, 50x10^6 of PBMCs were obtained from 30 ml of whole blood and 6x10^6 PBMCs were used to isolate protein, RNA and nuclear/cytosolic protein levels using the NE-PER Reagent (Pierce) following the manufacturer's instructions.
Total RNA was isolated from cells and mouse kidney samples with Trizol (Invitrogen). The cDNA was synthesized using the High-Capacity cDNA Archive Kit (Applied Biosystems) using 2 µg total RNA primed with random hexamer primers. […] The mRNA copy numbers were calculated for each sample by the instrument software using Ct value. Results are expressed in copy numbers, calculated relative to unstimulated cells or control mice, after normalization against 18S.

NF-κB1 [3] = assay: Canonical NF-κB1 activation in kidneys of TWEAK-injected mice; format: in vivo; conditions: kidneys from TWEAK-injected mice; paricalcitol 750 ng/kg/day
Protocol: as §2, §3
TWEAK administration: C57BL/6 female mice (9-12 weeks, weight 20 g, 7-8 animals per group), received a single intraperitoneal injection of 0.5 µg TWEAK dissolved in saline and were sacrificed 24 hours later, as previously described (Sanz et al. 2008). Controls were injected with the saline vehicle (n=8-10 mice per group). TWEAK endotoxin level were <0.1 ng/mg, confirmed by MALDI-TOF. […]
as §1

NF-κB1 [4] = assay: Canonical NF-κB1 activation, folic acid-induced renal injury in mice; format: in vivo; conditions: folic acid 300 mg/kg model; paricalcitol 25 µg/kg/day i.p.
Protocol: as §2, §3
Folic acid nephropathy is a classical model of kidney tubulointerstitial injury and inflammation that has been reported in humans. Mice received a single intraperitoneal injection of folic acid (Sigma) 300 mg/kg in 0.3 mol/l sodium bicarbonate or vehicle, and were sacrificed 48 hours later. […]
as §1

## C[C@H](/C=C/[C@H](C)C(C)(C)O)[C@H]1CC[C@H]2/C(=C/C=C3C[C@@H](O)C[C@H](O)C3)CCC[C@]12C [paricalcitol]
NF-κB2
  TWEAK-induced IKK-α phosphorylation, the increase in NIK, and p52 and RelB nuclear levels: inhibited
NF-κB1 [1]
  NF-κB1 activation, evaluated by IκB-α phosphorylation and p65/NF-κB DNA binding activity: not modified
[2]
  proinflammatory gene expression levels: significantly lower
NF-κB1 [3]
  IκBα phosphorylation and nuclear p65 NF-κB levels: not modulated; also recorded: not modified
NF-κB1 [4]
  NF-κB1 activation, evaluated by IκB-α phosphorylation: not modified
